Common to all, as to test: Quantitative drug diffusion (disc) assay per CLSI, zone of inhibition
Format in all cases: cell-based
Parameters in all cases: key to CLSI susceptibility interpretation: (R): Resistant;; (I): Intermediate;; (S): Sensitive (Interpretation as per CLSI recommendations, 2010)

For one test, the system named is E. coli 7MP. The source says: (§1) Antibacterial activity of cefepime combination with tazobactam against various bacterial strains, including those bacteria that are known to product one or more beta-lactamase, was investigated in quantitative drug diffusion assay performed as per CLSI recommendations (Clinical and Laboratory Standards Institute (CLSI), performance Standards for Antimicrobial Susceptibility Testing, 20th Informational Supplement, M 100-S20, Volume 30, No. 1, 2010).
(§2) In a typical study, overnight grown bacterial cultures after appropriate dilution were seed inoculated in the molten, cooled agar media and plates poured. Antibacterial agents containing 6 mm diameter discs were placed on the top of the agar surface. Zone of inhibition based observation was performed after 16 to 18 hours of incubation at 35±2° C. in ambient air. These assays are routinely used in determining possibility of treating a particular infection using given antibacterial agent or a composition. In general, zone inhibition values in the sensitive(S) range indicate that the strain is susceptible to that antibacterial agent or composition. It is generally assumed that the antibacterial agent or the combination under consideration would not be effective in treating the infection, if the zone inhibition values are in the resistant (R) range.

Another test relates to E. coli B-123.
Description: as §1, §2

The next test concerns E. coli B-89.
Description: as §1, §2

Another test has as its system E. coli M-138.
Description: as §1, §2

The test system of a further test is E. coli M50.
Description: as §1, §2

The subject of another test is E. coli S-112.
Description: as §1, §2

[1] abbreviates: 6 mm discs, 16 to 18 hours at 35±2° C., tazobactam 10 mcg in the combination.
The mark [2] stands for this setting: interpretation of zone of inhibition.

With `CO/N=C(\C(=O)N[C@@H]1C(=O)N2C(C(=O)[O-])=C(C[N+]3(C)CCCC3)CS[C@H]12)c1csc(N)n1` [Cefepime, cefepime], the “Zone of Inhibition” value in the test with E. coli 7MP (setting [1]) is given as 16 mm; in the test with E. coli B-123 (setting [1]), 8 mm; in the test on E. coli B-89 (setting [1]), 8 mm; in the test on E. coli M-138 (setting [1]) it was “Nil”; in the test with E. coli M50 (setting [1]) it was 7.5 mm; in the test on E. coli S-112 (setting [1]), 17 mm. For the same compound, the CLSI susceptibility interpretation result in the test with E. coli 7MP (setting [2]) is recorded as “I”; with E. coli B-123 (setting [2]) it was “R”; in the test with E. coli B-89 (setting [2]) it was “R”; with E. coli M-138 (setting [2]) it was “R”; with E. coli M50 (setting [2]), “R”; in the test on E. coli S-112 (setting [2]), “I”.

For the origin of these results see US20240325406A1, “ANTIBACTERIAL COMPOSITIONS” (Wockhardt Limited, priority 2016, published 2024).
